Key:
[1] = system: Human colon carcinoma HT29; assay: MTT assay, HT29; assay type: cell-based
Description: (§1) Human colon carcinoma HT29, human breast carcinoma MCF7, human bone sarcoma U2OS, human prostate carcinoma PC3, and human cervix carcinoma HeLa cells were obtained from the ATCC. A2780/CP70 cisplatin-resistant human ovarian cancer cells were kindly provided by Dr. Stephen B. Howell (Moores UCSD Cancer Center) and the human lung carcinoma cell lines A549 and normal lung fibroblast MRC5 by David E. Root (Whitehead Institute for Biomedical Research). Cells were incubated at 37° C. in 5% CO2 and grown in RPMI (HT29, A2780/CP70, and PC3) or DMEM (A549, MRC5, HeLa, MCF7, and U2OS) medium supplemented with 10% fetal bovine serum and 1% penicillin/streptomycin. Cells were passed every 3 to 4 days and restarted from a frozen stock upon reaching pass number 20.
(§2) Solutions of the platinum compounds were freshly prepared in sterile PBS before use and their concentrations quantitated by atomic absorption spectroscopy. […] The cells were then treated with 20 μL of 3-(4,5-dimethylthiazol-2-yl)-2,5-diphenyltetrazolium bromide (MTT) (5 mg/mL in PBS) and incubated for 4 h. The medium was removed, 100 μL of DMSO was added to the cells, and the absorbance of the purple formazan was recorded at 560 nm using a BioTek Synergy HT multi-detection microplate plate reader. Each condition was performed in triplicate and three independent experiments were carried out for each cell line.

[2] = system: normal lung fibroblast MRC5; assay: MTT assay, MRC5; assay type: cell-based, human
Description: as §1, §2

[3] = system: human lung carcinoma A549; assay: MTT assay, A549; assay type: cell-based
Description: (§6) Solutions of the platinum compounds were freshly prepared in sterile PBS before use and their concentrations quantitated by atomic absorption spectroscopy. Cells were seeded on a 96-well plate (1200 cells per well for cancer cells and 1800 cells per well for the normal lung fibroblasts) in 100 μL RPMI or DMEM media, and incubated for 24 h. […] The cells were then treated with 20 μL of 3-(4,5-dimethylthiazol-2-yl)-2,5-diphenyltetrazolium bromide (MTT) (5 mg/mL in PBS) and incubated for 4 h. The medium was removed, 100 μL of DMSO was added to the cells, and the absorbance of the purple formazan was recorded at 560 nm using a BioTek Synergy HT multi-detection microplate plate reader. Each condition was performed in triplicate and three independent experiments were carried out for each cell line.
(§7) Human prostate carcinoma (PC3) and human cervix carcinoma (HeLa) cells were obtained from the ATCC. The human lung carcinoma cell line A549 was kindly provided by David E. Root (Whitehead Institute for Biomedical Research). Cells were incubated at 37° C. in 5% CO2 and grown in RPMI (PC3) or DMEM (A549 and HeLa) medium supplemented with 10% fetal bovine serum and 1% penicillin/streptomycin. Cells were passaged every 3 to 4 days and restarted from the frozen stock upon reaching passage number 20.
(§8) Solutions of the platinum agents were freshly prepared in sterile PBS before use and the platinum content was quantitated by AAS. Cells were seeded on 96 well plates (1200 cells per well) in 100 μL RPMI or DMEM media\ and incubated for 24 hours. […] The cells were then treated with 20 μL of 3-(4,5-dimethylthiazol-2-yl)-2,5-diphenyltetrazolium bromide (MTT) (5 mg/mL in PBS) and incubated for 4 h. The medium was removed, 100 μL of DMSO were added to the cells, and the absorbance of the purple formazan was recorded at 570 nm using a BioTek Synergy HT multi-detection microplate plate reader. For each cell line, three independent experiments were carried out in triplicate.

human bone sarcoma U2OS = assay: MTT assay, U2OS; assay type: cell-based; conditions: 72-h incubation
Description: as §1, §2

[4] = system: human cervix carcinoma HeLa cells; assay: MTT assay, HeLa; assay type: cell-based
Description: as §6, §7, §8

NTera2 = assay: MTT assay, NTera2; assay type: cell-based, human; conditions: Table 3, NTera2 Testis, 72-h incubation
Description: as §6

pGLuc plasmid = assay: Platination of pGLuc plasmid; assay type: biochemical
Description: The resulting mixtures were dialyzed (molecular weight cut-off 3.5 kDa) against ddH2O overnight at 4° C. with five changes of ddH2O. The rb values (bound Pt/nucleotide) were determined by UV/Vis and atomic absorption spectroscopy.
In one embodiment, the ratio of bound platinum per plasmid was determined by measuring the Pt concentration by atomic absorption spectroscopy and the DNA concentration by UV/Vis spectroscopy.

calf thymus DNA = assay: Ethidium bromide DNA-binding competition, Scatchard analysis; design: key: competitive (type A); non-competitive (type D); both (type B); No inhibition of ethidium binding is labeled as type C
Description: Using this approach, it is possible to determine whether the inhibition of ethidium binding is competitive (type A), non-competitive (type D), or both (type B). No inhibition of ethidium binding is labeled as type C.

[5] = system: GLuc expression in HT29 cells; assay: Transcription assay, globally platinated pGLuc, HT29; assay type: cell-based, human; conditions: for transcription level (normalized against unplatinated plasmid): Pt/DNA ratio of […] for phenanthriplatin
Description: (§3) Transfection of transcription probes into A549 and HT29 cells with the pGLuc plasmid was carried out using liposomal transfecting agents. Determination of expression levels was tested by Luciferase assays monitored by a luminometer (J. Am. Chem. Soc. 2010, 132, 7429-7435). A549 cells were plated in 96-well plates at 2,000 cells/well and HT29 cells were plated in 96-well plates at 6,000 cells/well. After 48 h incubation (at ˜30% confluence), cells were transfected with 50 ng of platinated plasmids in 25 μL Opti-MEM and 0.125 μL Lipofectamine 2000, and subsequently 50 μL of antibiotics-free DMEM supplemented with 10% FBS. After 2 h, the cells were washed with medium and 100 μL of fresh medium was added. The experiment was carried out in quadruplicate.
(§4) GLuc activity was monitored using a luminescence plate reader (Synergy 2, BioTek, Winooski, Vt., USA). A 10 μL volume of medium at different time points (12, 24, 36, 48, 60 h) was transferred into opaque white 96-well plates, and 25 μL of GLuc assay solution (10 μM colelenterazine (NanoLight Technologies, Pinetop, Ariz., USA) in 2.5 mM acidified methanol (100 mM HCl), buffer (10 mM Tris-HCl pH 7.8, 1 mM EDTA, 0.6 M NaCl)) was added by the automatic injector of the instrument.
(§5) In another embodiment, A549 or HT29 cells were transfected using the platinated transcription probes, and transcription levels were investigated by determining GLuc expression as measured by […] following addition of coelenterazine as a substrate for the exported enzyme. The emission intensities were normalized against unplatinated plasmids as a control. Transcription profiles were obtained by plotting normalized levels of GLuc expression against platination levels (Pt/plasmid ratio) at five different time points. […] An increase in D0 value at different time points represents restoration of transcription.

[6] = system: GLuc expression in A549 cells; assay: Transcription assay, globally platinated pGLuc, A549; assay type: cell-based, human; conditions: for transcription level (normalized against unplatinated plasmid): Pt/DNA ratio of […] for phenanthriplatin
Description: as §3, §4, §5

[7] = system: human prostate carcinoma PC3; assay: MTT assay, PC3; assay type: cell-based
Description: as §6, §7, §8

[8] = system: human breast carcinoma MCF7; assay: MTT assay, MCF7; assay type: cell-based; conditions: Table 3, MCF7 Breast, 72-h incubation
Description: as §1, §2

[9] = system: Normal lung fibroblasts (MRC5) and cancerous lung (A549) cells; assay: Selective killing of cancer cells, MRC5 vs A549 (MTT); assay type: cell-based, human; conditions: 72 h
Description: as §2

Cc1cccnc1N.N.N.O=[N+]([O-])[O-].[Cl][Pt+] [cis-[Pt(NH3)2 (2-amino-3-methylpyridine)-Cl]NO3]
IC50 ([1]; Table 5, HT29, 72-h incubation): 72.9 ± 4.6 µM
IC50 ([2]; Table 5, MRC5, 72-h incubation): 51.7 ± 7.7 µM
IC50 ([3]; Table 5, A549, 72-h incubation): 47.1 ± 1.4 µM

N.N.O=[N+]([O-])[O-].[Cl][Pt+].c1ccc2nc3ccccc3cc2c1 [cis-[Pt(NH3)2(acridine)Cl]NO3]
IC50 (human bone sarcoma U2OS; Table 5, U2OS): 4.42 ± 0.31 µM
IC50 ([1]; Table 5, HT29, 72-h incubation): 13.5 ± 0.7 µM
IC50 ([4]; Table 5, HeLa, 72-h incubation): 2.69 ± 0.1 µM
IC50 ([2]; Table 5, MRC5, 72-h incubation): 9.17 ± 0.47 µM
IC50 ([3]; Table 5, A549, 72-h incubation): 3.74 ± 0.01 µM

O=[N+]([O-])[O-].[NH3+][Pt-2]([NH3+])([Cl])[n+]1cccc2c3ccccc3ccc21 (stereo not drawn) [cis-[Pt(NH3)2(benzo[f]quinoline)Cl]NO3]
IC50 (human bone sarcoma U2OS; Table 5, U2OS): 0.88 ± 0.01 µM
IC50 ([4]; Table 5, HeLa, 72-h incubation): 0.64 ± 0.01 µM
IC50 ([3]; Table 5, A549, 72-h incubation): 0.83 ± 0.03 µM

N.N.O=[N+]([O-])[O-].[Cl][Pt+].c1ccc2cnccc2c1 [cis-[Pt(NH3)2(isoquinoline)Cl]NO3]
IC50 ([1]; Table 5, HT29, 72-h incubation): 45.6 ± 2.7 µM
IC50 ([2]; Table 5, MRC5, 72-h incubation): 26.4 ± 1 µM
IC50 ([3]; Table 5, A549, 72-h incubation): 11.5 ± 0.4 µM

N.N.[Cl][Pt][Cl] [cisplatin]
IC50 (human bone sarcoma U2OS; Table 3, U2OS Bone): 7.15 ± 0.25 µM
IC50 (human bone sarcoma U2OS; Table 5, U2OS): 7.15 ± 0.25 µM
IC50 (NTera2): 0.14 ± 0.03 µM
Pt adducts per plasmid (pGLuc plasmid; rf 0.00074, 16 h at 37° C.): 4.64 Pt adducts per plasmid
rb (bound Pt/nucleotide) (pGLuc plasmid; rf 0.00074, 16 h at 37° C.): 0.0006
Pt adducts per plasmid (pGLuc plasmid; rf 0.0014, 16 h at 37° C.): 11.67 Pt adducts per plasmid
rb (bound Pt/nucleotide) (pGLuc plasmid; rf 0.0014, 16 h at 37° C.): 0.0015
Pt adducts per plasmid (pGLuc plasmid; rf 0.0028, 16 h at 37° C.): 20.65 Pt adducts per plasmid
rb (bound Pt/nucleotide) (pGLuc plasmid; rf 0.0028, 16 h at 37° C.): 0.0026
Pt adducts per plasmid (pGLuc plasmid; rf 0.0056, 16 h at 37° C.): 43.35 Pt adducts per plasmid
rb (bound Pt/nucleotide) (pGLuc plasmid; rf 0.0056, 16 h at 37° C.): 0.0054
type of inhibition of ethidium binding (Scatchard) (calf thymus DNA; 12-h incubation period): type C
type of inhibition of ethidium binding (Scatchard) (calf thymus DNA; 1 min incubation period): type C
transcription level (normalized against unplatinated plasmid) ([5]; HT29, 12 h): 15.6%
D0 (Pt lesions per plasmid required to reduce transcription levels to 37% of control) ([5]; HT29, 12 h after transfection): 9.9 Pt/plasmid
D0 (Pt lesions per plasmid required to reduce transcription levels to 37% of control) ([5]; HT29, 24 h after transfection): 14.5 Pt/plasmid
D0 (Pt lesions per plasmid required to reduce transcription levels to 37% of control) ([5]; HT29, 36 h after transfection): 19.2 Pt/plasmid
D0 (Pt lesions per plasmid required to reduce transcription levels to 37% of control) ([5]; HT29, 48 h after transfection): 22.1 Pt/plasmid
transcription level (normalized against unplatinated plasmid) ([5]; HT29, 60 h): 42.9%
D0 (Pt lesions per plasmid required to reduce transcription levels to 37% of control) ([5]; HT29, 60 h after transfection): 30.0 Pt/plasmid
IC50 ([1]; Table 3, HT29 Colorectal, 72-h incubation): 15.9 ± 1.5 µM
IC50 ([1]; Table 5, HT29, 72-h incubation): 15.9 ± 1.5 µM
transcription level (normalized against unplatinated plasmid) ([6]; A549, 12 h): 25.8%
D0 (Pt lesions per plasmid required to reduce transcription levels to 37% of control) ([6]; A549, 12 h after transfection): 16.8 Pt/plasmid
D0 (Pt lesions per plasmid required to reduce transcription levels to 37% of control) ([6]; A549, 24 h after transfection): 20.0 Pt/plasmid
D0 (Pt lesions per plasmid required to reduce transcription levels to 37% of control) ([6]; A549, 36 h after transfection): 29.5 Pt/plasmid
D0 (Pt lesions per plasmid required to reduce transcription levels to 37% of control) ([6]; A549, 48 h after transfection): 36.4 Pt/plasmid
transcription level (normalized against unplatinated plasmid) ([6]; A549, 60 h): 60.2%
D0 (Pt lesions per plasmid required to reduce transcription levels to 37% of control) ([6]; A549, 60 h after transfection): 42.6 Pt/plasmid
IC50 ([7]; Table 3, PC3 Prostate, 72-h incubation): 4.56 ± 0.52 µM
IC50 ([7]; Table 11 (Example 3), PC3 Prostate, 72 h): 3.93 ± 0.52 µM
IC50 ([4]; Table 3, HeLa Cervix, 72-h incubation): 1.77 ± 0.72 µM
IC50 ([4]; Table 5, HeLa, 72-h incubation): 1.77 ± 0.72 µM
IC50 ([4]; Table 11 (Example 3), HeLa Cervix, 72 h): 1.78 ± 0.15 µM
IC50 ([2]; Table 4, MRC5 normal lung fibroblast, 72 h incubation): 6.18 ± 0.16 µM
IC50 ([2]; Table 5, MRC5, 72-h incubation): 6.18 ± 0.16 µM
IC50 ([3]; Table 3, A549 Lung, 72-h incubation): 6.75 ± 0.38 µM
IC50 ([3]; Table 4, A549 human lung carcinoma, 72 h incubation): 6.62 ± 0.4 µM
IC50 ([3]; Table 5, A549, 72-h incubation): 6.75 ± 0.38 µM
IC50 ([3]; Table 11 (Example 3), A549 Lung, 72 h): 6.47 ± 0.74 µM
IC50 [8]: 11.6 ± 0.6 µM
ratio of IC50 values in healthy MRC5 cells to those in cancerous A549 cells [9]: 0.9

From patent US9034862B2, “Compositions and methods for the treatment of cancer” (priority 2011, dated 2015)
